What was measured:
[1] = target: Casein kinase 1 delta (CSKN1D) (Homo sapiens, UniProt P48730); assay: Casein kinase assay, CK1 delta; format: biochemical; conditions: recombinant CSKN1D 5 nM, ATP 10 μM
U87MG (brain) = assay: Proliferation Assay; format: cell-based; conditions: Homo sapiens, U-87 MG, 72 h, read-out: IC50 inhibition of cell growth
Method: (§1) For the determination of the inhibitory capacity of compounds of the present invention (in the following: “test compound(s)”) on cell growth, cancer cells were seeded into microtitre plates, treated with different concentrations of test compound or left untreated, and after 72 h the protein content was determined as an equivalent for the cell number.
(§2) Test compounds were dissolved in 100% DMSO and predilutions in cell culture medium were prepared with a final concentration of 0.1% DMSO in medium. The cell culture medium for dilution of the test compounds, consecutive culturing of cell lines and usage during the assay was a cell line specific medium as recommended by the cell line supplier and identical for all three applications mentioned above. After a 24-hour pre-growth period of the seeded cancer cells, the test compound containing media or medium containing 0.1% DMSO as control was added to the cells. The cells were allowed to grow at 37° C. for 72 hours. In addition, all experiments contained a few plates with cells that were processed for measurement immediately after the 24 hours recovery period. These plates contained information about the cell number that existed before treatment, at time zero, and served to calculate the cytotoxicity and/or growth inhibitory effects.
(§3) After treatment, cells were precipitated by addition of 10% TCA (trichloracetic acid). Prior to fixation, the media was aspirated. After an hour of incubation at 4° C. the plates were washed twice with 400 μl of deionized water. Cells were then stained with 100 μl of a 0.08% wt/v SRB (sulforhodamine). The plates were allowed to sit for at least 30 min and washed six times with 1% acetic acid to remove unbound staining agent. The plates were left to dry at room temperature and bound SRB was solubilized with 100 μl of 10 mM Tris base. Measurement of optical density was performed at 560 nm on a Victor 2 plate reader (Perkin Elmer, Germany).
(§4) One common way to express the effect of an anticancer agent is to measure cell viability and survival in the presence of the test agent as % Treated/Control×100. The relationship between the viability and dose is called a dose response curve. Those dose response curves were determined by using algorithms developed by Oncolead GmbH & Co. KG, Munich, Germany, that can be compared to commercial applications, e.g. XLfit™ (ID Business Solutions Ltd., Guildford, UK) algorithm “205”.

EFO21 (ovary) = assay: Proliferation Assay; format: cell-based; conditions: Homo sapiens, EFO-21, 72 h, read-out: IC50 inhibition of cell growth
Method: as §1, §2, §3, §4

SAOS2 (bone) = assay: Proliferation Assay; format: cell-based; conditions: Homo sapiens, SAOS-2, 72 h, read-out: IC50 inhibition of cell growth
Method: as §1, §2, §3, §4

SF268 (brain) = assay: Proliferation Assay; format: cell-based; conditions: Homo sapiens, SF-268, 72 h, read-out: IC50 inhibition of cell growth
Method: as §1, §2, §3, §4

UMUC3 (bladder) = assay: Proliferation Assay; format: cell-based; conditions: Homo sapiens, 72 h, read-out: IC50 inhibition of cell growth
Method: as §1, §2, §3, §4

COLO205 (colon) = assay: Proliferation Assay; format: cell-based; conditions: Homo sapiens, COLO 205, 72 h, read-out: IC50 inhibition of cell growth
Method: as §1, §2, §3, §4

PANC1005 (pancreas) = assay: Proliferation Assay; format: cell-based; conditions: Homo sapiens, 72 h, read-out: IC50 inhibition of cell growth
Method: as §1, §2, §3, §4

Sequence of Casein kinase 1 delta (CSKN1D) (P48730 whole entry): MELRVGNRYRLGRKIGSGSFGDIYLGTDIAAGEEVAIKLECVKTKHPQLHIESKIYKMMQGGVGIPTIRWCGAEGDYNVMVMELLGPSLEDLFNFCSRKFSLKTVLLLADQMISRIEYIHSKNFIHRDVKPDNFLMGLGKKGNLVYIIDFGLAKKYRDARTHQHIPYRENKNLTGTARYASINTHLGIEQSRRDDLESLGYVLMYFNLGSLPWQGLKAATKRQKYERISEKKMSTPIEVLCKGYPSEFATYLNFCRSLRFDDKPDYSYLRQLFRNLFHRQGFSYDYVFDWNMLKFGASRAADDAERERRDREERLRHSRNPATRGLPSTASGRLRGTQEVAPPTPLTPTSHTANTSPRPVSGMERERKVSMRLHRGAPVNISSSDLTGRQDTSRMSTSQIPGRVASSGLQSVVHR

COc1cccc(C(=O)Nc2nc3cc4c(cc3[nH]2)OC(F)(F)O4)c1 [Compound 56, N-(2,2-difluoro-5H-[1,3]dioxolo[4′,5′:4,5]benzo[1,2-d]imidazol-6-yl)-3-methoxybenzamide]
IC50 [1]: < 200 nM | IC50 (U87MG (brain)): ≤ 1000 nM | IC50 (EFO21 (ovary)): ≤ 1000 nM | IC50 (SAOS2 (bone)): ≤ 1000 nM | IC50 (SF268 (brain)): ≤ 1000 nM | IC50 (UMUC3 (bladder)): ≤ 1000 nM | IC50 (COLO205 (colon)): ≤ 1000 nM | IC50 (PANC1005 (pancreas)): ≤ 1000 nM

Source: patent US20170240556A1, “BIFLUORODIOXALANE-AMINO-BENZIMIDAZOLE KINASE INHIBITORS FOR THE TREATMENT OF CANCER, AUTOIMMUNEINFLAMMATION AND CNS DISORDERS” (4SC DISCOVERY GMBH, priority 2012, published 2017)
